In patent EP0139005A1, “ANTITUMOR COMPOSITION, METHOD FOR TREATING TUMOR, AND USE OF THE COMPOSITION FOR TREATING TUMOR” (Yoshitomi Pharmaceutical Industries, Ltd., priority 1982, dated 1984):

Legend:
AH44 hepatoma = AH44 hepatoma implanted intraperitoneally, single dose, survival (Experimental Example 5); type: in vivo, male Donryu rats; conditions: once, three days after implantation
Excerpt: A plurality of groups each consisting of six male Donryu rats (7-8 weeks old) were respectively implanted intraperitoneally with 10^6 cells of AH44 hepatoma. Three days after the implantation, each test animal was once administered orally or intraperitoneally with Y-6430.

P388 leukemia = P388 leukemia implanted intraperitoneally, survival (Experimental Example 2); type: in vivo, female CDF1 mice; conditions: for 30-day Survivors / Average Survival Time / Life-Prolongation Ratio (%): once daily for seven days
Method: The life-prolongation ratio was calculated by the following scheme (the same scheme is applied to the subsequent experimental examples).
Life-prolongation Ratio [formula] T : Average survival days of the treated group
C : Average survival days of the control group
Animals survived over 30 days or longer were estimated as 30-day survivors, and the cases where T/C equals to or greater than 125% were regarded as effective.
A plurality of groups each consisting of five heads of female CDF1 mice (7-8 weeks old) were respectively implanted intraperitoneally with 10^6 cells of P388 leukemia. After 24 hours, Y-6430 and ESCC were respectively administered once daily for seven days, and average survival days, life-prolongation ratios and 30-day survivors in each group were calculated.

[1] = Acute toxicity in mice (Experimental Example 11); conditions: mouse, in vivo, ip; administered intraperitoneally, male ddn mice
Method: Acute toxicity value when Y-6430 was administered intraperitoneally to male ddn mice was 1,500 mgjkg or more. 'Acute toxicity values when AH-44 carcinoma cells were implanted peritoneally and orally to Donryu rats were both 1,000 mg/kg or more.

With `CCOC(=O)[C@@H](N)CSC(=O)NC.Cl` [Y-6430, S-methylcarbamoyl-L-cysteine ethyl ester hydrochloride] the “30-day Survivors” value (AH44 hepatoma; 500 mg/kg p.o.) was 0/6, the “Average Survival Time” value (AH44 hepatoma; 500 mg/kg p.o.) was 11.2 days and the “30-day Survivors” value (AH44 hepatoma; 1,000 mg/kg i.p.) was 1/6. The “Average Survival Time” value (AH44 hepatoma; 1,000 mg/kg i.p.) was 14.7 days, the “30-day Survivors” value (AH44 hepatoma; 1,000 mg/kg p.o.) was 0/6 and the “Average Survival Time” value (AH44 hepatoma; 1,000 mg/kg p.o.) was 10.8 days. The “30-day Survivors” value (P388 leukemia; 100 mg/kg/day i.p.) was 0/5, the “Average Survival Time” value (P388 leukemia; 100 mg/kg/day i.p.) was 13.4 days and the “Life-Prolongation Ratio (%)” value (P388 leukemia; 100 mg/kg/day i.p.) was 134%. The “30-day Survivors” value (P388 leukemia; 100 mg/kg/day p.o.) was 0/5, the “Average Survival Time” value (P388 leukemia; 100 mg/kg/day p.o.) was 11.6 days and the “Life-Prolongation Ratio (%)” value (P388 leukemia; 100 mg/kg/day p.o.) was 116%. The “30-day Survivors” value (P388 leukemia; 250 mg/kg/day i.p.) was 0/5, the “Average Survival Time” value (P388 leukemia; 250 mg/kg/day i.p.) was 14.6 days and the “Life-Prolongation Ratio (%)” value (P388 leukemia; 250 mg/kg/day i.p.) was 146%. For the same compound, the “30-day Survivors” value (P388 leukemia; 250 mg/kg/day p.o.) was 0/5, the “Average Survival Time” value (P388 leukemia; 250 mg/kg/day p.o.) was 13.4 days and the “Life-Prolongation Ratio (%)” value (P388 leukemia; 250 mg/kg/day p.o.) was 134%. For the same compound, the “30-day Survivors” value (P388 leukemia; 500 mg/kg/day i.p.) was 0/5, the “Average Survival Time” value (P388 leukemia; 500 mg/kg/day i.p.) was 17.2 days and the “Life-Prolongation Ratio (%)” value (P388 leukemia; 500 mg/kg/day i.p.) was 172%. The “30-day Survivors” value (P388 leukemia; 500 mg/kg/day p.o.) was 0/5, the “Average Survival Time” value (P388 leukemia; 500 mg/kg/day p.o.) was 15.0 days and the “Life-Prolongation Ratio (%)” value (P388 leukemia; 500 mg/kg/day p.o.) was 150%. The “30-day Survivors” value (P388 leukemia; 1,000 mg/kg/day p.o.) was 0/5, the “Average Survival Time” value (P388 leukemia; 1,000 mg/kg/day p.o.) was 16.6 days and the “Life-Prolongation Ratio (%)” value (P388 leukemia; 1,000 mg/kg/day p.o.) was 166%. For the same compound, the “effectiveness against P388 leukemia” value (P388 leukemia; summary of Tables 2 and 3, T/C equal to or greater than 125% regarded as effective) was “effective” and the LD50 [1] was at least 1500 mg/kg.
